Assay results published in patent US11230578B2, “Peptides and use of same in the treatment of diseases, disorders or conditions associated with a mutant P53” (Yeda Research and Development Co. Ltd., priority 2016, dated 2022).
Read-outs that look alike come from different tables or passages of the source.

Assays:
[1] = test system: ES2 ovarian cancer cells (p53 mutant S241F); type: cell-based
Protocol: Cells were cultured in 96 wells plates with 3000 cells/well. […] Then medium was removed and cell viability was determined by staining the cells with crystal violet (0.05%) in methanol/PBS (1:5, v/v), for 10 min, followed by 3 washes with PBS. 10% acetic acid was added to each well for 10 min. OD was determined at 595 nm.
Cells, ES2 Con expressing endogenous mp53^S241F, and ES2 KO cells in which p53 was stably knocked out using CRISPR/Cas9 (ES2 p53KO), to control for specificity for mutp53 were cultured in 96 wells plates with 3000 cells/well. Indicated peptides were added at a concentration of 8 μg/ml and the plates incubated for additional 48 h at 37° C. Then medium was removed and cell viability was determined by staining the cells with crystal violet (0.05%) in methanol/PBS (1:5, v/v), for 10 min, followed by 3 washes with PBS. 10% acetic acid was added to each well for 10 min. OD was determined at 595 nm.
Cells were cultured in 96 wells plates with 3000 cells/well. Serial dilutions of different peptides were added and the plates incubated for additional 48 h at 37° C. Then the medium was removed and cell viability was determined by staining the cells with crystal violet (0.05%) in methanol/PBS (1:5, v/v), for 10 min, followed by 3 washes with PBS. 10% acetic acid was added to each well for 10 min. OD was determined at 595 nm. Results are normalized to non-treated cells 100% viability.
Cells were cultured in 96 wells plates with 2500-4000 cells/well. Serial dilutions of different peptides were added and the plates incubated for additional 48 h at 37° C. Then medium was removed and cell viability was determined by staining the cells with crystal violet (0.05%) in methanol/PBS (1:5, v/v), for 10 min, followed by 3 washes with PBS. 10% acetic acid was added to each well for 10 min. OD was determined at 595 nm.
ES2 Cells were cultured in 96 wells plates with 3000 cells/well. […] Then medium was removed and cell viability was determined by staining the cells with crystal violet (0.05%) in methanol/PBS (1:5, v/v), for 10 min, followed by 3 washes with PBS. 10% acetic acid was added to each well for 10 min. OD was determined at 595 nm.
Cells, ES2 Con expressing endogenous mp53S241F, and ES2 KO cells in which p53 was stably knocked out using CRISPR/Cas9 (ES2 p53KO), to control for specificity for mutp53 were cultured in 96 wells plates with 3000 cells/well. The indicated peptides were added at a concentration of 8 μg/ml and the plates incubated for additional 48 h at 37° C. Then medium was removed and cell viability was determined by staining the cells with crystal violet (0.05%) in methanol/PBS (1:5, v/v), for 10 min, followed by 3 washes with PBS. 10% acetic acid was added to each well for 10 min. OD was determined at 595 nm.

[2] = Pharmacokinetic study, plasma half life; type: in vivo
Text: FIGS. 4A-D show the pharmacokinetics of various modes of administration.

[3] = test system: ES2 cells expressing luciferase; test: ES2 ovarian cancer mouse xenograft model, luciferase live imaging; type: in vivo, nude mice
Protocol: 2*10^5 ES2 cells expressing luciferase were injected into the hips of nude mice. Bioluminescence was measured. […] The background threshold detection level of the IVIS system was about 5×10^6 photons. […]
Mice (6 weeks Athymic nude) were injected subcutaneously with 2×10^5-10^6 cells into each […]. All the cell lines employed in these experiments stably express a luciferase reporter gene to enable monitoring of tumor growth by live imaging. 4-18 days later, when tumors reached visible size, the mice were randomly divided into several groups: a control group, treated with either a single control peptide, and groups treated with effective peptide, either a single peptide. Peptides were administered either by intratumoral injection of 10 μg peptide per tumor in 40 μl PBS, three times a week or by Alzet mini pumps 0.8 mg for two weeks. Tumor growth over time was measured by live imaging, using the IVIS2000 system. Exposure time was calibrated to 20 seconds. 16 images were taken over 8 minutes and peak luminescence values were taken for each tumor. Experiments were conducted until tumors reached maximal allowed size of 1 cm^3, at which mice were sacrificed and tumors extracted, measured and weighed.

- IC50 ([1]; 48 h): 3200 nM
- IC50 ([1]; read-out: IC50 for pCAP-250 in combination with cisplatin, cell viability, ES2 cells, together with 1 μg/ml of cisplatin, 48 h, estimated): 1900 nM
- half-life ([2]; iv, 1 mg/kg, administered intravenously): 0.8 to 1.8 h
- half-life ([2]; sc, administered subcutaneously): 3 to 8 h
SMILES: CCCCCCCCCCCCCC(=O)N[C@@H](CCCNC(=N)N)C(=O)N[C@@H](CCCNC(=N)N)C(=O)N[C@@H](Cc1c[nH]cn1)C(=O)N[C@@H](CO)C(=O)N[C@H](C(=O)N1CCC[C@H]1C(=O)N[C@@H](Cc1c[nH]cn1)C(=O)N1CCC[C@H]1C(=O)N[C@@H](CC(=O)O)C(=O)O)[C@@H](C)O [pCAP-250]
- viability of the cancer cells in the presence of peptide ([1]; ES2 cells, FIG. 1): reduced significantly
- combination effect of pCAP-250 and cisplatin ([1]; ES2 cells, pCAP-250 dilutions + 1 μg/ml cisplatin, 48 h): synergistic effect
- effect on tumor development of ES2 cells ([3]; intratumoral injections, 0.4 mg/kg 3 times a week): significant effect
- effect on tumor development of ES2 cells ([3]; subcutaneously by Alzet minipumps, 2.3 mg/kg per day): significant effect
